Measurements: patent US20070021509A1, “Phosphate transport inhibitors” (priority 2001, published 2007)

Tested on: phosphate uptake by rabbit intestinal Brush Border Membrane Vesicles (BBMV)
Assay: 33PO4 uptake in rabbit intestinal BBMV (HTS), phosphate transporter inhibition in vitro
Format: biochemical
Conditions: Table 1, phosphate uptake, read-out: IC50
Experimental: The following example outlines the procedures required for in vitro measurement of the inhibition of phosphate uptake by rabbit intestinal Brush Border Membrane Vesicles (BBMV).
Rabbit Intestinal Brush Border Membrane Vesicles (BBMV) were isolated from mucosal scrapings of the upper small intestine (duodenum) of male New Zealand White rabbits. The scrapings were divided into 2 g aliquots in cryopreservation vials, frozen in liquid nitrogen, and stored at −80° C.
The following procedure was performed for each 2 g sample of BBMV mucosal scraping. Buffer volumes and container sizes were adjusted appropriately for the number of 2 g samples used. The entire preparation was performed on ice, unless otherwise stated.
Mucosal scrapings (2 g per tube) were thawed in a 37° C. water bath for 3 minutes and then placed on ice. The scrapings were suspended with a total of 7.5 ml of 300 MET, and transferred to a 250 mL Corning tube on ice. To the suspension was added 30 mL cold (4° C.) deionized water (dH20). The suspension was homogenized with a tissue homogenizer (Polytron) on high speed for 2 minutes. A stir bar and MgCl2 (81.3 mg) was added. The suspension was mixed well by inverting the closed tube. The suspension was stirred on ice, ensuring that a good vortex is achieved with the stir bar, for 40 minutes. The suspension was transferred to a chilled centrifuge tube and spun at 4000×g for 15 minutes. The supernatant was transferred to a new chilled centrifuge tube and spun at 32000×g for 30 minutes. The supernatant was discarded and the pellet was re-suspended with 34 mL cold 60 MET. The suspension was homogenized with a Dounce homogenizer with 8 strokes. The suspension was transferred to a fresh 250 mL Corning tube. A stir bar and 69.1 mg MgCl2 were added. The suspension was stirred well on ice for 10 minutes. The suspension was transferred to a chilled centrifuge tube and spun at 4000×g for 15 minutes. The supernatant was transferred to a new chilled centrifuge tube and spun at 32000×g for 30 minutes. The supernatant was discarded. At this stage, the preparation could be continued or this pellet (P4) could be frozen in liquid nitrogen and stored at −80° C. When needed, this pellet could be allowed to thaw at room temperature for 5 minutes. Continuing the preparation, the pellet was re-suspended with 34 mL cold 280 MH. The suspension was homogenized in a Dounce homogenize with 8 strokes. The suspension was transferred to a new chilled centrifuge tube and spun at 32000×g for 30 minutes. The supernatant was discarded. To the pellet was added 500 μL 280 MH and the pellet was re-suspended very carefully with a 1 mL tuberculin syringe with a 25-gauge needle with care not to create bubbles. Once the entire pellet was suspended, the suspension was transferred to a chilled 1.5 mL microfuge tube. The suspension was evenly dispersed by bringing the suspension up into the syringe through the 25-gauge needle, and back out again 8 times with care not to create bubbles. The total protein concentration was determined by performing a Bradford Protein Assay. Using that value, the BBMV were diluted with 280 MH to reach approximately 0.5-2.0 mg/mL. The solution was used as soon as possible for uptake studies.
The following experiment was performed using a Beckman Multimek 96-tip robotic pipettor. The following outlines the preparation required to screen one 96-well plate of compounds. However, multiple plates could be screened in one experiment.
To the “Uptake Buffers” was added ^33PO4 to reach 200,000 CPM/19 μL. The buffer solutions were stored at room temperature. The following control solutions were prepared and placed into appropriate wells of a polypropylene, 96-well V-bottom plate (“Hot Stock Plate”):
a. Maximum activity (MAX)−Na Uptake buffer+^33PO4 at 200,000 CPM/19 μL
b. Midline activity (MID)−MAX+100 μM KH2PO4, pH 7.4
c. Minimum activity (MIN)− K Uptake buffer+^33PO4 at 200,000 CPM/19 μL

Row | SMILES | IC50 [µM]
1 | COc1ccc(S(=O)(=O)Nc2ccc(Br)cc2C(=O)O)cc1 [Compound 37] | 501 to 1000
2 | O=C(O)c1cc(Br)ccc1NS(=O)(=O)c1ccc(Oc2ccccc2)cc1 [Compound 11] | 101 to 500
3 | O=C(O)c1ccc(S(=O)(=O)Nc2ccc(Br)cc2C(=O)O)cc1 [Compound 47] | > 1500
4 | O=C(O)c1cc(Br)ccc1NS(=O)(=O)c1ccc(Cl)cc1 [Compound 39] | > 1500
5 | O=C(O)c1cc(Br)ccc1NS(=O)(=O)c1ccccc1[N+](=O)[O-] [Compound 38] | 1000 to 1500
6 | O=C(O)c1cc(Br)ccc1NS(=O)(=O)c1ccc(O)c([N+](=O)[O-])c1 [Compound 44] | > 1500
7 | O=C(O)c1cc(Br)ccc1NS(=O)(=O)c1ccccc1Cl [Compound 31] | 101 to 500
8 | O=C(O)c1cc(Br)ccc1NS(=O)(=O)c1ccc([N+](=O)[O-])cc1 [Compound 5] | 51 to 100
9 | O=C(O)c1cc(Br)ccc1NS(=O)(=O)c1cccc(F)c1 [Compound 34] | 101 to 500

Same assay, conditions: Table 2, phosphate uptake, read-out: IC50

Row | SMILES | IC50 [µM]
10 | O=C(Nc1cccc(Br)c1)c1cc(Br)ccc1NS(=O)(=O)c1ccc(OC(F)(F)F)cc1 [Compound 72] | 101 to 500
11 | O=C(Nc1cccc(Br)c1)c1cc(Br)ccc1NS(=O)(=O)c1ccc(Cl)cc1 [Compound 91] | > 1500
12 | O=C(Nc1ccc(Cl)c(Cl)c1)c1cc(Br)ccc1NS(=O)(=O)c1cccc([N+](=O)[O-])c1 [Compound 125] | 101 to 500
13 | O=C(Nc1ccc(-c2ccccc2)cc1)c1cc(Br)ccc1NS(=O)(=O)c1ccc(OC(F)(F)F)cc1 [Compound 73] | 101 to 500
14 | NCCCCCCNC(=O)c1cc(Br)ccc1NS(=O)(=O)c1ccc(Cl)c([N+](=O)[O-])c1 [Compound 119] | 1000 to 1500
15 | O=C(Nc1ccc(Cl)cc1)c1cc(Br)ccc1NS(=O)(=O)c1ccc(Cl)cc1 [Compound 97] | > 1500
16 | O=C(Nc1ccccc1Br)c1cc(Br)ccc1NS(=O)(=O)c1ccc(Cl)c([N+](=O)[O-])c1 [Compound 114] | 51 to 100
17 | O=C(Nc1ccccc1F)c1cc(Br)ccc1NS(=O)(=O)c1ccc(Cl)cc1 [Compound 88] | 101 to 500
18 | COc1ccc(NC(=O)c2cc(Br)ccc2NS(=O)(=O)c2ccc(OC(F)(F)F)cc2)cc1 [Compound 56] | 51 to 100
19 | O=C(Nc1ccccc1Cl)c1cc(Br)ccc1NS(=O)(=O)c1ccc(Cl)c([N+](=O)[O-])c1 [Compound 118] | 101 to 500
20 | Cc1c(Cl)cccc1NC(=O)c1cc(Br)ccc1NS(=O)(=O)c1ccc(OC(F)(F)F)cc1 [Compound 83] | 501 to 1000
21 | O=C(NCc1ccc(OC(F)(F)F)cc1)c1cc(Br)ccc1NS(=O)(=O)c1ccc(OC(F)(F)F)cc1 [Compound 60] | 51 to 100
22 | O=C(NCc1ccc(Cl)c(Cl)c1)c1cc(Br)ccc1NS(=O)(=O)c1ccc(OC(F)(F)F)cc1 [Compound 63] | 51 to 100
23 | Cc1c(Cl)cccc1NC(=O)c1cc(Br)ccc1NS(=O)(=O)c1ccc(Cl)cc1 [Compound 93] | > 1500

Same assay, conditions: Table 3, 100 μM compound

Row | SMILES | % Inhib. At 100 μM [%]
24 | O=C1OCc2ccc(NS(=O)(=O)c3ccc(C(F)(F)F)cc3)cc21 [Compound 161] | 29
25 | COc1cc([N+](=O)[O-])ccc1NC(=O)c1cc(Br)ccc1NS(=O)(=O)c1ccc(OC(F)(F)F)cc1 [Compound 170] | 103
26 | O=C(Nc1ccc(I)cc1F)c1cc(Br)ccc1NS(=O)(=O)c1ccc(OC(F)(F)F)cc1 [Compound 171] | 100
27 | CC(=O)Nc1ccc(S(=O)(=O)N2CCCc3ccccc32)cc1 [Compound 158] | 37
28 | COc1ccc(NC(=O)c2cc(Br)ccc2NS(=O)(=O)c2ccc(OC(F)(F)F)cc2)c([N+](=O)[O-])c1 [Compound 175] | 78
29 | O=[N+]([O-])c1cc(Br)ccc1NS(=O)(=O)c1ccc(OC(F)(F)F)cc1 [Compound 147] | 61
30 | O=S(=O)(Nc1cc(C(F)(F)F)c(Cl)cc1Cl)c1cc(C(F)(F)F)cc(C(F)(F)F)c1 [Compound 146] | 62
31 | O=S(=O)(Nc1ccc(I)cc1F)c1ccc(OC(F)(F)F)cc1 [Compound 126] | 103
32 | O=S(=O)(Nc1ccccn1)c1ccc(OC(F)(F)F)cc1 [Compound 168] | 16
33 | Cc1ccc2c(c1)CCCN2S(=O)(=O)c1ccc(C(C)(C)C)cc1 [Compound 141] | 68
34 | NC(=O)c1ccccc1NS(=O)(=O)c1ccc(OC(F)(F)F)cc1 [Compound 166] | 22
35 | O=S(=O)(Nc1ccccc1Br)c1ccc(OC(F)(F)F)cc1 [Compound 149] | 57
36 | O=C(Nc1ccccc1Cl)c1cc(Br)ccc1NS(=O)(=O)c1ccc(Cl)cc1 [Compound 173] | 95

Same assay, conditions: Table 4, phosphate uptake, read-out: IC50

Row | SMILES | IC50 [µM]
37 | O=C(Nc1cc(Cl)cc(C(F)(F)F)c1)Nc1ccc(Br)cc1P(=O)(O)O [Compound 181] | 51 to 100
38 | O=C(Nc1cccc(C(F)(F)F)c1)Nc1ccc(Br)cc1P(=O)(O)O [Compound 192] | 101 to 500
39 | O=C(Nc1ccc(F)c([N+](=O)[O-])c1)Nc1ccc(Br)cc1P(=O)(O)O [Compound 194] | 101 to 500
40 | O=C(Nc1ccc(Cl)c(C(F)(F)F)c1)Nc1ccc(Br)cc1P(=O)(O)O [Compound 185] | 101 to 500
41 | O=C(Nc1cc(Cl)cc(Cl)c1)Nc1ccc(Br)cc1P(=O)(O)O [Compound 180] | 51 to 100
42 | N#Cc1cccc(NC(=O)Nc2ccc(Br)cc2P(=O)(O)O)c1 [Compound 197] | 501 to 1000

Same assay, conditions: Table 5, 100 μM compound

Row | SMILES | % Inhib. at 100 μM [%]
43 | O=C(Nc1cccc(F)c1)Nc1ccc(Br)cc1P(=O)(O)O [Compound 229] | 73
44 | O=C(Nc1cccc(C(F)(F)F)c1)Nc1cccc(C(F)(F)F)c1 [Compound 214] | 100
45 | O=C(Nc1ccc(Br)cc1)Nc1cccc(C(F)(F)F)c1 [Compound 227] | 75
46 | O=C(Nc1cccc(C(F)(F)F)c1)Nc1cc(Cl)ccc1Cl [Compound 220] | 92
47 | O=C(Nc1cccc(C(F)(F)F)c1)Nc1ccccc1Cl [Compound 223] | 85

Same assay, conditions: Table 6, 100 μM compound

Row | SMILES | % Inhib. at 100 μM [%]
48 | Oc1ccc(C2=NOC(c3ccc(F)cc3)C2)cc1 (centres unmarked) [Compound 234] | 62

Same assay, conditions: Table 8, 100 μM compound

Row | SMILES | % Inhib. at 100 μM [%]
49 | CCCCOc1ccc(C(=O)Nc2ccc(Br)cc2P(=O)(OCC)OCC)cc1 [Compound 246] | 57

Same assay, conditions: Table 10, phosphate uptake, read-out: IC50

Row | SMILES | IC50 [µM]
50 | O=C(Nc1ccc(Br)cc1P(=O)(O)O)c1ccc(OC(F)(F)F)cc1 [Compound 268] | > 1500
51 | CCOP(=O)(OCC)c1cc(Br)ccc1NC(=O)c1ccc(F)cc1F [Compound 260] | 101 to 500
52 | O=C(Nc1ccccc1)c1ccccc1P(=O)(O)O [Compound 269] | > 1500
53 | CCOP(=O)(OCC)c1cc(Br)ccc1NC(=O)c1ccc(OC(F)(F)F)cc1 [Compound 259] | 101 to 500
54 | CCOP(=O)(OCC)c1cc(Br)ccc1NC(=O)c1cc(C(F)(F)F)ccc1C(F)(F)F [Compound 264] | 101 to 500
55 | CCOP(=O)(OCC)c1cc(Br)ccc1NC(=O)c1ccc(Cl)c(Cl)c1 [Compound 267] | 501 to 1000

Same assay, conditions: Table 12, 100 μM compound

Row | SMILES | % Inhib. at 100 μM [%]
56 | Cc1ccc(S(=O)(=O)Cc2c(Cl)cccc2Cl)cc1 [Compound 281] | 53

Same assay, conditions: Table 13, phosphate uptake, read-out: IC50

Row | SMILES | IC50 [µM]
57 | O=[N+]([O-])c1cccc(S(=O)(=O)Nc2ccc(/C=C/c3ccc(NS(=O)(=O)c4cccc([N+](=O)[O-])c4)cc3S(=O)(=O)O)c(S(=O)(=O)O)c2)c1 [Compound 297] | 101 to 500
58 | O=S(=O)(O)c1cc(NS(=O)(=O)c2ccc(-c3ccccc3)cc2)ccc1/C=C/c1ccc(NS(=O)(=O)c2ccc(-c3ccccc3)cc2)cc1S(=O)(=O)O [Compound 298] | 501 to 1000
59 | O=S(=O)(O)c1cc(NS(=O)(=O)c2ccc(-c3ccccc3)cc2)ccc1/C=C/c1ccc(NS(=O)(=O)c2ccc(-c3ccccc3)cc2)cc1S(=O)(=O)O [Compound 293] | 51 to 100
